Test results as given in patent publication US10407441B2, “Compositions and methods for treating neoplasia, inflammatory disease and other disorders” (Dana-Farber Cancer Institute, Inc., priority 2010, dated 2019).
Like-named read-outs stand apart in the source and are kept apart here.

Columns and labels:
797 cells = experiment: Cell proliferation assay, 797 NMC cell line; format: cell-based; details: Homo sapiens, read-out: Cell-assay IC50 797 cells
Experimental: Curve fit was calculated by logistical regression.
Cells were seeded into white, 384-well microtiter plates (Nunc) at 500 cells per well in a total volume of 50 μL media. […] Compounds were delivered to microtiter assay plates by robotic pin transfer (PerkinElmer JANUS equipped with a V&P Scientific 100 nL pin tool). Following a 48 h incubation at 37° C., cells were lysed and wells were assessed for total ATP content using a commercial proliferation assay (Cell TiterGlo; Promega). Replicate measurements were analyzed with respect to dose and estimates of IC50 were calculated by logistic regression (GraphPad Prism).

10326 cells = experiment: Cell proliferation assay, 10326 patient-derived cell line; format: cell-based; details: Homo sapiens, read-out: Cell-assay IC50 10326 cells
Experimental: Curve fit was calculated by logistical regression (FIG. 56C). […] Curve fit was calculated by logistical regression.

BRD4(1) = BRD4(1) (Homo sapiens (Human), UniProt O60885); experiment: Alpha-assay acetyl-histone binding, BRD4 site 1
Experimental: The binding activity of lead compounds with the BRD4 site 1 was determined by Alpha-assay with a 12-point dose response curve (FIG. 56A).
Assays were performed as described previously^8 with minor modifications from the manufacturer's protocol (PerkinElmer, USA). All reagents were diluted in 50 mM HEPES, 100 mM NaCl, 0.1% BSA, pH 7.4 supplemented with 0.05% CHAPS and allowed to equilibrate to room temperature prior to addition to plates. […] Plates were sealed and incubated for a further 30 minutes, before the addition of 4 μl of streptavidin-coated donor beads (25 μg/ml) and 4 μl nickel chelate acceptor beads (25 μg/ml) under low light conditions. Plates were foil-sealed to protect from light, incubated at room temperature for 60 minutes and read on a PHERAstar FS plate reader (BMG Labtech, Germany) using an AlphaScreen 680 excitation/570 emission filter set. IC50 values were calculated in Prism 5 (GraphPad Software, USA) after normalization against corresponding DMSO controls and are given as the final concentration of compound in the 20 μl reaction volume.

BRD4(2) = BRD4(2) (Homo sapiens (Human), UniProt O60885); experiment: Alpha-assay acetyl-histone binding, BRD4 site 2
NMC 11060 cells = experiment: cells; details: Homo sapiens, NMC 11060, 72 h, read-out: cellular viability IC50
Experimental: Data is presented as mean±s.d. (n=3). IC50 values were calculated by logistic regression. […] (n=3).
(§1) In parallel with these studies, a patient with widely metastatic BRD4-NUT positive NMC arising from the mediastinum was identified. With the goal of developing a more clinically-relevant disease model, short-term cultures were established using discarded clinical material obtained from pleural fluid draining from a palliative chest tube in the patient.

NMC 11060 xenografts = experiment: Patient-derived NMC 11060 primary xenograft, PET imaging; format: in vivo, mouse; details: 50 mg kg^-1 daily for four days
Source text: as §1

GFP-BRD4 = GFP-BRD4 (Homo sapiens (Human), UniProt O60885); experiment: FRAP in U2OS cells transfected with GFP-BRD4; format: cell-based
Experimental: (§4) FRAP studies were performed on U2OS cells as previously described^3,20. In brief, U2OS cells were transfected (lipofectamine; Invitrogen) with mammalian overexpression constructs encoding GFP chimera with BRD4, NUT and BRD4-NUT. A 5 μm^2 nuclear region was bleached with high laser intensity in one cell within each field, and measured for recovery with low laser intensity and a 150 μm pinhole. Images of identical fields were acquired using a Nikon C1 Plus confocal microscope equipped with a 37° C. heated chamber and FRAP modules over 90 seconds. Average intensities of the bleached region were measured over time and using MetaMorph v7, and normalized to an independent region of interest before bleaching.

Per403 cells = experiment: cells; details: Homo sapiens, PER-403, 72 h, read-out: Per403 IC50 (inhibition of cell growth)
Experimental: (§2) Thus, early and late apoptosis was assessed with annexin-V and propidium iodide staining by flow cytometry.

NMC 797 and Per403 cells = experiment: Differentiation and proliferation immunohistochemistry in NMC cells; format: cell-based, human; details: BRD4-dependent NMC cells
TT = experiment: Cell proliferation, TT squamous carcinoma cell line; format: cell-based, human; details: 250 nM, 72 hours
Experimental: (§3) Data is presented as mean±s.d. (n=3). IC50 values were calculated by logistic regression.

TE10 [1] = experiment: Cell proliferation, TE10 squamous carcinoma cell line; format: cell-based, human; details: 250 nM, 72 hours
Experimental: as §3

GFP-NUT = GFP-NUT (Homo sapiens (Human), UniProt Q86Y26); experiment: FRAP in cells transfected with GFP-NUT; details: 500 nM
Chain of GFP-NUT (Q86Y26 whole entry, looked up): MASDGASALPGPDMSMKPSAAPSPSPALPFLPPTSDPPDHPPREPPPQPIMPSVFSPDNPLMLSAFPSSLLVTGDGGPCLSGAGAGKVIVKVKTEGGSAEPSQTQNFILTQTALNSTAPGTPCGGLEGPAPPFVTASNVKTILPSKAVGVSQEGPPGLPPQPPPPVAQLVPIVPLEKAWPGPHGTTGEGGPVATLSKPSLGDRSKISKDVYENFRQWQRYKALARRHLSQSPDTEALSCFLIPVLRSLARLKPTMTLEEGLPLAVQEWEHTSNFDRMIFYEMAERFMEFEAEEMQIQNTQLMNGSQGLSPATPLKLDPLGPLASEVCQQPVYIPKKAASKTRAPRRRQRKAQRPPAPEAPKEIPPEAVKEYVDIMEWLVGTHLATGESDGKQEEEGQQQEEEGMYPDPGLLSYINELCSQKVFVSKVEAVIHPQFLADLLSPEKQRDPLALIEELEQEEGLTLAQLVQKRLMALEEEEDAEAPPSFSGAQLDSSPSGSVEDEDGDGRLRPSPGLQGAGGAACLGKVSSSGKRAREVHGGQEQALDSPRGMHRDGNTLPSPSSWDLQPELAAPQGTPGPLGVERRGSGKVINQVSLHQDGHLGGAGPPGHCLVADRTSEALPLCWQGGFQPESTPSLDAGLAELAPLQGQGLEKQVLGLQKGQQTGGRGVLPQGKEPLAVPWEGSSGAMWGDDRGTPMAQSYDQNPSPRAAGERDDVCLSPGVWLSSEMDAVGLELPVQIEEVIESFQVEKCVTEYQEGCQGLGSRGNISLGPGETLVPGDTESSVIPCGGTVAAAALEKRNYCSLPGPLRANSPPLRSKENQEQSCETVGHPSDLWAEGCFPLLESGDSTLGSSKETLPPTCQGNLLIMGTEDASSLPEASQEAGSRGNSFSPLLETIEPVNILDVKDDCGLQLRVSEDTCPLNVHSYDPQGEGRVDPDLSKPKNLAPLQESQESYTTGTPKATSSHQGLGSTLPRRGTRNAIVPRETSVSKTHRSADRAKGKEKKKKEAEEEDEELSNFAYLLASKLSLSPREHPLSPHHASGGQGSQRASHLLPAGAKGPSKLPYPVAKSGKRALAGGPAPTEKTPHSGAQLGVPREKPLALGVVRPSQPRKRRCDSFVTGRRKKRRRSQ
Experimental: as §4

NMC 797 xenografts = experiment: NMC 797 xenograft efficacy study; format: in vivo, mouse
Source text: Animals were followed daily for clinical symptoms.

[2] = test system: BRD4-dependent human carcinoma cells; experiment: Annexin-V / propidium iodide flow cytometry (apoptosis); format: cell-based; details: 500 nM, 24 or 48 hours
Experimental: as §2
Trypsinized cells were mixed 1:1 on ice with Annexin-V/propidium iodide buffer (10 mM HEPES pH 7.4, 140 mM NaCl, 2.5 mM CaCl2) containing Annexin V-FITC (BD Pharmingen, 1:500) and propidium iodide (Invitrogen, 1:1000). Samples were immediately analyzed on a BD FACS Canto II. Visualizations and analyses of apoptotic fractions were generated using FlowJo flow cytometry analysis software (Tree Star, Inc.).

GFP-BRD4-NUT = GFP-BRD4-NUT (Homo sapiens (Human), UniProt O60885+Q86Y26); details: 500 nM
Experimental: as §4

cellular receptors = experiment: Off-target effects on cellular receptors
BRD3-NUT cells = experiment: BRD3-NUT murine xenograft model; format: in vivo, mouse; details: 50 mg/kg IP 7 days/week
Source text: Mice were implanted subcutaneously with BRD3-NUT cells. Tumor measurement data were collected weekly. […] On day 24 post-injection, five mice from each group were euthanized and tumor samples were collected to be sent for lab analysis. Throughout the remainder of the study tumor samples were collected as mice were sacrificed. For all samples one half of the tumor was fixed in 10% formalin and the other half was flash frozen on dry ice. Treatment ended on day 32. Tumor volume and weights were collected weekly until all mice either became moribund or tumors reached 2 cm in any dimension. […] Upon cessation of therapy, tumor growth resumed. Tumor volume differences were significant at all points (p=7.65274E-09 at Day 24).

TE10 [3] = experiment: Differentiation immunohistochemistry in non-BRD4-dependent squamous carcinoma cell line
Experimental: Media was then removed and chambers were washed with cold PBS. Cells were then fixed in 4% formaldehyde for 20 minutes at 4° C., washed with PBS and transferred to the Dana-Farber/Harvard Cancer Center (DF/HCC) Specialized Histopathology Services Core at Brigham and Women's Hospital for staining, as described below. […] Cells were then trypsinized and cell pellets were formed by centrifugation at 2,000 rpm for 10 minutes, stabilized with ½ volume of HistoGel (Richard-Allen Scientific) and 10% bovine serum albumin. Cell pellets were washed with PBS and fixed in 4% formaldehyde for 20 minutes at 4° C. The cells were then washed with PBS and transferred to the DF/HCC Core Laboratory at the Brigham and Women's Hospital for staining, as described below. […] All fixed material was embedded, sectioned and stained by the DF/HCC Core Laboratory at Brigham and Women's Hospital, using established optimized protocols. Images were obtained using an Olympus BX40 microscope (Olympus Imaging America, Center Valley, Pa.) and a Micropublisher 3.3 RTV color camera (QImaging, Surrey, BC).

For `Cc1sc2c(c1C)C(c1ccc(Cl)cc1)=NC(CC(=O)NCCN1CCOCC1)c1nnc(C)n1-2` (stereo not drawn) [JQ33], the IC50 (797 cells; proliferation after 72 hours) was 0.00297 µM and the IC50 (10326 cells; proliferation after 72 hours) was 8 nM.

In the case of `Cc1sc2c(c1C)C(c1ccc(Cl)cc1)=N[C@@H](CC(=O)N/N=C/c1ncc[nH]1)c1nnc(C)n1-2` [JQ6], the IC50 (797 cells; proliferation after 72 hours) is reported as 0.001 µM, the “binding activity with the BRD4 site 1” value (BRD4(1)) is reported as “excellent binding activity” and the “binding activity with the BRD4 site 2” value (BRD4(2)) is reported as “excellent binding activity”. It also gave an IC50 (10326 cells; proliferation after 72 hours) of 0.051 nM.

Compound `Cc1sc2c(c1C)C(c1ccc(Cl)cc1)=N[C@H](CC(=O)OC(C)(C)C)c1nnc(C)n1-2` [(R)-JQ1] has an IC50 (797 cells; 72 h) of 1540 µM and an IC50 (10326 cells; 72 h) of 11800 nM.

In the case of `Cc1sc2c(c1C)C(c1ccc(Cl)cc1)=N[C@@H](CC(=O)OC(C)(C)C)c1nnc(C)n1-2` (single isomer, unassigned) [(+)-JQ1], the IC50 (NMC 11060 cells) is reported as 0.004 µM, the “keratin expression by quantitative IHC” value (NMC 11060 xenografts) is reported as “induction of keratin expression” and the “fluorescence recovery of GFP-BRD4” value (GFP-BRD4; 250 nM, 5 h) is reported as “enhanced recovery”. The IC50 (Per403 cells) was 0.06 µM and the “differentiation and growth arrest phenotypes” value (NMC 797 and Per403 cells) was “prompted”.

In the case of `Cc1sc2c(c1C)C(c1ccc(Cl)cc1)=NC(CC(=O)NCCCN1CCN(C)CC1)c1nnc(C)n1-2` (stereo not drawn) [JQ35], the IC50 (797 cells; proliferation after 72 hours) is reported as 0.00609 µM, the “binding activity with the BRD4 site 1” value (BRD4(1)) is reported as “excellent binding activity” and the “binding activity with the BRD4 site 2” value (BRD4(2)) is reported as “excellent binding activity”. The IC50 (10326 cells; proliferation after 72 hours) was 3 nM.

In the case of `Cc1sc2c(c1C)C(c1ccc(Cl)cc1)=NC(CC(=O)OC(C)(C)C)c1nnc(C)n1-2` (racemic) [JQ1, tert-Butyl 2-(4-(4-chlorophenyl)-2,3,9-trimethyl-6H-thieno[3,2-f][1,2,4]triazolo[4,3-a][1,4]diazepin-6-yl)acetate], the “effects on cell proliferation” value (TT) is reported as “Minimal effects”, the “effects on cell proliferation” value (TE10 [1]) is reported as “Minimal effects” and the “redistribution of GFP-NUT” value (GFP-NUT) is reported as “no effect”. The “tolerability (toxicity, weight loss)” value (NMC 797 xenografts; 50 mg kg^-1 daily IP, 14 days) was “well tolerated”, the “tumor growth (tumor volume by caliper)” value (NMC 797 xenografts; 50 mg kg^-1 daily IP, 14 days) was “statistically-significant reduction in tumor growth” and the “FDG uptake by PET imaging” value (NMC 797 xenografts; 50 mg kg^-1 daily IP, four days) was “marked response on FDG uptake”. For the same compound, the “keratin expression by quantitative IHC” value (NMC 797 xenografts; excised tumor specimens) was “strong (3+) keratin expression”, the “fluorescence recovery of GFP-BRD4” value (GFP-BRD4; 500 nM) was “immediate” and the “apoptosis (annexin-V and propidium iodide staining)” value [2] was “induced immediate and progressive apoptosis”. For the same compound, the “time-to-recovery of fluorescence intensity, GFP-BRD4-NUT” value (GFP-BRD4-NUT) was “markedly accelerated”, the “off-target effects on cellular receptors” value (cellular receptors) was “few off-target effects” and the body weight (BRD3-NUT cells) was “mild weight loss”. For the same compound, the tumor volume (BRD3-NUT cells) was “tumor regression” and the differentiation effects (TE10 [3]) was “fails to exhibit differentiation effects”.

With `Cc1sc2c(c1C)C(c1ccc(Cl)cc1)=N[C@@H](CC(=O)OC(C)(C)C)c1nnc(C)n1-2` [(S)-JQ1, (S)-tert-Butyl 2-(4-(4-chlorophenyl)-2,3,9-trimethyl-6H-thieno[3,2-f][1,2,4]triazolo[4,3-a][1,4]diazepin-6-yl)acetate] the IC50 (797 cells; 72 h) was 0.0056 µM and the IC50 (10326 cells; 72 h) was 1.5 nM.

For `Cc1sc2c(c1C)C(c1ccc(Cl)cc1)=N[C@@H](CC(=O)NCCN1CCN(C)CC1)c1nnc(C)n1-2` [JQ13], the “binding activity with the BRD4 site 1” value (BRD4(1)) was “excellent binding activity” and the “binding activity with the BRD4 site 2” value (BRD4(2)) was “excellent binding activity”.

For `Cc1sc2c(c1C)C(c1ccc(Cl)cc1)=N[C@@H](CC(=O)NCCc1cnc[nH]1)c1nnc(C)n1-2` [JQ8], the IC50 (797 cells; proliferation after 72 hours) was 0.6 µM, the “binding activity with the BRD4 site 1” value (BRD4(1)) was “excellent binding activity” and the “binding activity with the BRD4 site 2” value (BRD4(2)) was “excellent binding activity”. It also gave an IC50 (10326 cells; proliferation after 72 hours) of 2.8 nM.
